Experimental data from the supplement of paper PMC13380429.

How the values were obtained:
Conditions in all cases: 72 h
HepG2 [1] = experiment: cell viability relative to DMSO; higher = less toxic
Vero E6 [2] = experiment: as above
Caco-2 [3] = experiment: as above
Calu-3 [4] = experiment: as above
U2OS [5] = experiment: as above
HepG2 [6] = experiment: relative viability EC50 (midpoint between 100% and the lowest measured viability); higher = less toxic
Vero E6 [7] = experiment: as above
Caco-2 [8] = experiment: as above
Calu-3 [9] = experiment: as above
U2OS [10] = experiment: as above
HepG2 [11] = experiment: drug sensitivity score (DSS) for viability; higher = more toxic; extreme values may be limits of the assay
Vero E6 [12] = experiment: as above
Caco-2 [13] = experiment: as above
Calu-3 [14] = experiment: as above
U2OS [15] = experiment: as above

SMILES | cell viability (HepG2 [1]; 1 nM) | cell viability (HepG2 [1]; 10 nM) | cell viability (HepG2 [1]; 100 nM) | cell viability (HepG2 [1]; 1000 nM) | cell viability (HepG2 [1]; 10000 nM) | cell viability (Vero E6 [2]; 1 nM) | cell viability (Vero E6 [2]; 10 nM) | cell viability (Vero E6 [2]; 100 nM) | cell viability (Vero E6 [2]; 1000 nM) | cell viability (Vero E6 [2]; 10000 nM) | cell viability (Caco-2 [3]; 1 nM) | cell viability (Caco-2 [3]; 10 nM) | cell viability (Caco-2 [3]; 100 nM) | cell viability (Caco-2 [3]; 1000 nM) | cell viability (Caco-2 [3]; 10000 nM) | cell viability (Calu-3 [4]; 1 nM) | cell viability (Calu-3 [4]; 10 nM) | cell viability (Calu-3 [4]; 100 nM) | cell viability (Calu-3 [4]; 1000 nM) | cell viability (Calu-3 [4]; 10000 nM) | cell viability (U2OS [5]; 1 nM) | cell viability (U2OS [5]; 10 nM) | cell viability (U2OS [5]; 100 nM) | cell viability (U2OS [5]; 1000 nM) | cell viability (U2OS [5]; 10000 nM) | relative viability EC50 (HepG2 [6]) | relative viability EC50 (Vero E6 [7]) | relative viability EC50 (Caco-2 [8]) | relative viability EC50 (Calu-3 [9]) | relative viability EC50 (U2OS [10]) | drug sensitivity score (HepG2 [11]) | drug sensitivity score (Vero E6 [12]) | drug sensitivity score (Caco-2 [13]) | drug sensitivity score (Calu-3 [14]) | drug sensitivity score (U2OS [15])
Nc1nc(/C(=C/CC(=O)O)C(=O)N[C@@H]2C(=O)N3C(C(=O)O)=CCS[C@H]23)cs1 [ceftibuten] | 86.3% | 105% | 99.3% | 95.3% | 91% | 99.5% | 104% | 96.1% | 104% | 97.8% | 102% | 102% | 106% | 94.9% | 104% | 103% | 99.9% | 102% | 94.6% | 106% | 101% | 95% | 100% | 97.8% | 106% | > 10 µM | > 10 µM | > 10 µM | > 10 µM | > 10 µM | 0 | 0 | 0 | 0 | 0
CN1C(=O)CCS(=O)(=O)C1c1ccc(Cl)cc1 (stereo not given) [chlormezanone] | 96.5% | 97.7% | 96.7% | 103% | 103% | 103% | 106% | 104% | 103% | 97.8% | 94.4% | 96.2% | 101% | 95.7% | 99.6% | 96% | 102% | 96.6% | 97.6% | 102% | 101% | 97.1% | 102% | 95.7% | 103% | > 10 µM | > 10 µM | > 10 µM | > 10 µM | > 10 µM | 0 | 0 | 0 | 0 | 0
Cc1cc(O)c(C(C)C)cc1Cl [chlorothymol] | 89.8% | 90.1% | 92.9% | 98.7% | 104% | 96.9% | 96.9% | 93.7% | 100% | 109% | 95.6% | 90.3% | 95.8% | 101% | 99.6% | 100% | 83.8% | 101% | 93.5% | 91.9% | 99.5% | 97.9% | 104% | 95.9% | 102% | > 10 µM | > 10 µM | > 10 µM | > 10 µM | > 10 µM | 0 | 0 | 0 | 0 | 0
Nc1ccn(C[C@@H](CO)OCP(=O)(O)O)c(=O)n1 [cidofovir] | 97% | 98.3% | 104% | 111% | 120% | 93.7% | 94.3% | 88.4% | 87.4% | 99.6% | 103% | 92.7% | 106% | 96.8% | 101% | 93.7% | 104% | 112% | 101% | 107% | 99.4% | 95.7% | 97.5% | 95.3% | 98.7% | > 10 µM | > 10 µM | > 10 µM | > 10 µM | > 10 µM | 0 | 0 | 0 | 0 | 0
CN(C(=O)CCCOc1ccc2[nH]c(=O)ccc2c1)C1CCCCC1 [cilostamide] | 97.2% | 98.7% | 98.8% | 110% | 110% | 91.7% | 98.3% | 89.8% | 98.1% | 104% | 100% | 94.7% | 99.2% | 96.9% | 90.6% | 92.8% | 92.9% | 94.6% | 85.3% | 105% | 102% | 95.5% | 101% | 92.9% | 97% | > 10 µM | > 10 µM | > 10 µM | > 10 µM | > 10 µM | 0 | 0 | 0 | 0 | 0
O=C/C=C/c1ccccc1 [cinnamaldehyde] | 97.8% | 100% | 108% | 108% | 97.5% | 92.3% | 99.5% | 96.7% | 98.7% | 95.9% | 103% | 94.2% | 96.9% | 97.6% | 101% | 90.3% | 105% | 105% | 95.1% | 102% | 106% | 99.2% | 98.6% | 96.8% | 99.4% | > 10 µM | > 10 µM | > 10 µM | > 10 µM | > 10 µM | 0 | 0 | 0 | 0 | 0
